Drawing on ChEMBL document CHEMBL4765294, “Discovery and evaluation of new compounds targeting ribosomal protein S1 in antibiotic-resistant Mycobacterium Tuberculosis” (Eur J Med Chem, 2020), this text covers Activity, Kq and Kd for seven compounds.

In experiment [1] the test system is Mycobacterium tuberculosis. Nature of the experiment: Binding affinity to Mycobacterium tuberculosis RpsA Ala438 deleted mutant C-terminal domain (285 to 476 residues) at 500 uM by STD based analysis.
The test system of experiment [2] is Mycobacterium tuberculosis. Nature of the experiment: Binding affinity to Mycobacterium tuberculosis RpsA Ala438 deleted mutant C-terminal domain (285 to 476 residues) assessed as quenching rate constant by fluorescence quenching titration based analysis.
Experiment [3] can be described thus: Binding affinity to Mycobacterium tuberculosis RpsA Ala438 deleted mutant C-terminal domain (285 to 476 residues) assessed as dissociation constant by fluorescence quenching titration based analysis.

The source made the active and inactive calls. No cut-off for these calls is given here.

In the case of `Cc1ccc(CNC(=O)COc2cc(O)c3c(=O)cc(-c4ccccc4)oc3c2)cc1`, in experiment [1], the outcome was Active. Besides, the Kq in experiment [2] was 6.64 10^12/M/s. For the same compound, the Kd (as a rule, the free concentration of one partner at which half of the binding sites on the other are occupied at equilibrium, for simple one-to-one binding) in experiment [3] stood at 1.64 µM.

Take `O=C(O)CSc1nc2nc[nH]c2c(=O)[nH]1`: the result in experiment [1] was Active. Further, the Kq in experiment [2] is 1.91 10^12/M/s. Further, in experiment [3], the Kd is 5.11 µM.

In the case of `Cc1ccc(CNC(=O)CSc2nc3nc[nH]c3c(=O)[nH]2)cc1`, the outcome in experiment [1] was Active. Further, in experiment [2], the Kq was 3.68 10^12/M/s. Moreover, in experiment [3], the Kd came out at 8.5 µM.

With `Cc1cccc(CNC(=O)COc2cc(O)c3c(=O)cc(-c4ccccc4)oc3c2)c1`, in experiment [1], the result was Active. Moreover, the Kq in experiment [2] was 2.33 10^12/M/s. Moreover, in experiment [3], the Kd is 6.91 µM.

Take `CC(Sc1nc(N)cc(N)n1)C(=O)O` (centres undefined): in experiment [3], the Kd was 1.74 µM.

As for `CCOC(=O)CSc1nc2nc[nH]c2c(=O)[nH]1`, the outcome in experiment [1] was Active. Also, the Kq in experiment [2] is 3.4 10^12/M/s. In addition, the Kd in experiment [3] worked out at 0.31 µM.

Turning to `Cc1cccc(CNC(=O)CSc2nc3nc[nH]c3c(=O)[nH]2)c1`, the result in experiment [1] was Active. Besides, in experiment [2], the Kq is 2.54 10^12/M/s. Besides, the Kd in experiment [3] worked out at 4.67 µM.
